This passage reports EC50 and AC50 results from ChEMBL document CHEMBL1201862, “PubChem BioAssay data set” (2004).

A short description of assay [1]: inhibitors of SNCA 5'UTR-driven reporter translation, confirmation, H4 neuroglioma cells, luminescence (AID 1988). It counts as functional, cell-based.
A short description of assay [2]: Luminescence Cell-Based Dose Response HTS to Identify Inhibitors of 5'UTR Stem-Loop Driven Prion Protein mRNA Translation in H4 Neuroglioblastoma Cells. [Related pubchem assays: 1827 (Project Summary), 1813 (Primary HTS)]. It counts as functional.
A short description of assay [3]: inhibitors of firefly luciferase expression or activity, dose response, H4 neuroglioma cells, luminescence (AID 1990). It counts as functional, cell-based.
Assay [4] in a line: C. albicans growth with fluconazole, confirmation, fluorescence, retest (AID 2467). The format is functional, cell-based.
A short description of assay [5]: NIH-3T3 fibroblast cytotoxicity, dose response, cytotoxicity control, cell-based, fluorescence, Alamar Blue, secondary assay (AID 2327).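 Note: NIH-3T3 mouse fibroblasts cultured with fluconazole at 8 µg/mL.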 The format is functional.
The target of assay [6] is T1, Protein RecA (Mycobacterium tuberculosis, UniProt P9WHJ3).
T1 sequence (P9WHJ3 whole entry): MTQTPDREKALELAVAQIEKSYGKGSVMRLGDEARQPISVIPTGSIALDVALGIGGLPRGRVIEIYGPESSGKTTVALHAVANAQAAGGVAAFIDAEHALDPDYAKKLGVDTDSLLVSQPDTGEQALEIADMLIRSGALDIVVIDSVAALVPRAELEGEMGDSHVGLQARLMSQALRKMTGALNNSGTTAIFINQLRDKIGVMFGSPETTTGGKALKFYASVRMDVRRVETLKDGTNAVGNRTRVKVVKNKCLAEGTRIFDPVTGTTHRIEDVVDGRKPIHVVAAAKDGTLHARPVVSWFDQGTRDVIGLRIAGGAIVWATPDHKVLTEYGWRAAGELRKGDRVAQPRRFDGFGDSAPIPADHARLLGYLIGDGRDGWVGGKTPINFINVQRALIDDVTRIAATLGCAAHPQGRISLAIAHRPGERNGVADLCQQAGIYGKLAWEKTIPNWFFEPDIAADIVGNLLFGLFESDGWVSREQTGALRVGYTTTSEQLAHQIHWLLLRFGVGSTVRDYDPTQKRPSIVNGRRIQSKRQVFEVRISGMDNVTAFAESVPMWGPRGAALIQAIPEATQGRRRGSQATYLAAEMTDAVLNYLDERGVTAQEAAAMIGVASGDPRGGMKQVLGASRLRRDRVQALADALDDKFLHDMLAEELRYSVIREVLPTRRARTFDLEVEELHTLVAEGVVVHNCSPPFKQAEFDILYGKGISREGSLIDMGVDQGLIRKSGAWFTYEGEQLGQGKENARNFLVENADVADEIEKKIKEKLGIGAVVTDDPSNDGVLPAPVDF
As to the kind of experiment: Fluorescence Cell-Free Homogeneous Dose Retest to Identify Inhibitors of RecA-Intein Splicing Activity. [Related pubchem assays (depositor defined):AID2097, AID2223, AID489010, AID492950]. The format is functional.

The target in assay [7] is T2, Replicative DNA helicase DnaB (Mycobacterium tuberculosis, UniProt P9WMR3).
T2 sequence (P9WMR3 whole entry): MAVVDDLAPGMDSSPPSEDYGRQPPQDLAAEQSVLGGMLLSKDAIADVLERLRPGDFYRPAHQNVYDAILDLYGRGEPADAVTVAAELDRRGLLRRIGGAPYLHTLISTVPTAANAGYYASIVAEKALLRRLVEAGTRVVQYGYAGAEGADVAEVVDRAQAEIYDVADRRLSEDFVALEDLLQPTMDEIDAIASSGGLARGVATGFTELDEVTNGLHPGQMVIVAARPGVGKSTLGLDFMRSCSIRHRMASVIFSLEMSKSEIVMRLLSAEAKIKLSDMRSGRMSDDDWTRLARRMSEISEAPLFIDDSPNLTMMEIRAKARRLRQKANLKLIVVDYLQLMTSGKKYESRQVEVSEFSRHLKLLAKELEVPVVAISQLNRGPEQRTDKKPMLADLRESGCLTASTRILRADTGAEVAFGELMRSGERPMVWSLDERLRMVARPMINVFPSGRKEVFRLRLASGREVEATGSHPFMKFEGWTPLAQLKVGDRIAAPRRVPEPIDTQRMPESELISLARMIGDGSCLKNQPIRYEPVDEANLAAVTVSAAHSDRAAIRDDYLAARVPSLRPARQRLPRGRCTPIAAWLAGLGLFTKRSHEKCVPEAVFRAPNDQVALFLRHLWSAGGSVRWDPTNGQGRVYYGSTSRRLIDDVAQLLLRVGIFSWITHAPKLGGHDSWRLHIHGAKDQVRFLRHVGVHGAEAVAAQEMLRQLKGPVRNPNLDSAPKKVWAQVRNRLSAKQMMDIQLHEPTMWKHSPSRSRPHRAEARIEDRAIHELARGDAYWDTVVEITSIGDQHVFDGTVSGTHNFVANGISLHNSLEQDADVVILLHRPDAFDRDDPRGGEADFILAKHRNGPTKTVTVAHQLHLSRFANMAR
Briefly: DnaB intein splicing inhibitors, dose response, biochemical, cell-free fluorescence (AID 449749). The format is functional.

Assay [8] concerns H4. Briefly: Luminescence Cell-Based Dose Response HTS to Identify Activators of 5'UTR Stem-Loop Driven Prion Protein mRNA Translation in H4 Neuroglioblastoma Cells. [Related pubchem assays: 1829 (Project Summary), 1814 (Primary HTS)]. The format is functional. The following applies: Homo sapiens.
Assay [9] can be described thus: Luminescence Cell-Based Dose Response HTS to Identify Activators of Luciferase Translation or Activity in H4 […] Cells. [Related pubchem assays: 1829 (Project Summary), 1814 (Primary HTS)]. The format is functional.
Assay [10] is described as follows: Luminescence Cell-Based Dose Confirmation HTS to Identify Activators of 5'UTR Stem-Loop Driven Alpha-Synuclein mRNA Translation in H4 Neuroglioblastoma Cells. [Related pubchem assays: 1829 (Project Summary), 1814 (Primary HTS)]. The format is functional.
Assay [11] in a line: inhibitors of intracellular T. cruzi replication, confirmation, NIH3T3 host cells, beta-gal luminescence (AID 2044).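 Note: intracellular parasites grown in NIH/3T3 mouse fibroblasts as host cells; luminescent beta-galactosidase reporter signal from transgenic T. cruzi replicating inside host cells; inhibitors lower the luminescence signal.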 The format is functional, cell-based.
The nature of assay [12]: cytotoxicity toward NIH3T3 fibroblasts, dose response, counter-screen, cell-based, ATP luminescence, mouse fibroblasts (AID 2010).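 Note: cells exposed to compound for about 90 hours before reading.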 The format is functional.

Active and inactive are the calls of the source. Cut-off read from the data, not from the text of the source, for most assays here: actives have a measured EC50 and inactives only a lower limit.

Broadly, the EC50 is the concentration needed to bring the measured effect to its halfway point. As a reminder, the AC50 is the midpoint of the concentration-response curve, whichever way the signal moves.

Take `O=C(COc1ccc(Oc2ccccc2)cc1)NCc1cn2ccccc2n1`: the figures for the EC50 in assay [1], in assay [2] and in assay [3] were 8.5 µM (active), 14.8 µM (active) and 12.7 µM (active), respectively.
For the compound `Cc1nn(-c2ccccc2)c(N2CCCC2)c1/C=N/NC(=O)c1ccccc1O`, the concentration giving a half-maximal response (EC50) is 27.3 µM (active) in [1]; > 38 µM (not active) in assay [4]; > 150 µM (inactive) in assay [5]; > 120 µM (not active) in [2]; 29.2 µM (active) in [3].
Regarding `NC(=O)[C@H](Cc1cc2ccccc2s1)NC(=O)[C@@H]1CC2(CC(c3cccc(NC(=O)[C@@H]4CCC(=O)N4)c3)=NO2)CN1C(=O)/C=C/c1c(F)cccc1Cl` (stereo partly specified), the EC50 in [6] is 168 µM (active). Moreover, in assay [7], the AC50 is 20 µM (active).
Take `Cc1ccccc1Nc1nc(N)nc(COC(=O)c2ccccc2)n1`: the EC50 is 25.7 µM (active) in assay [8], 25.1 µM (active) in assay [9] and 40.5 µM (active) in [10].
With `CC1CCCC2(C1)N=C(S)c1c(sc3c1CCCC3)N2` (stereo unspecified), the EC50 in [8], in assay [9] and in [10] was > 120 µM (not active) each time.
With `COc1ccc(Cl)cc1N(CC(=O)Nc1ccccc1C(=O)NCc1ccco1)S(C)(=O)=O`, the EC50 in assay [1], in [2] and in assay [3] was > 120 µM (not active) throughout.
`COc1ccc(OC)c(NC(=O)CN2C(=O)CSc3ccc(S(=O)(=O)N4CCCC4)cc32)c1`: the EC50 in assay [1], in assay [2] and in assay [3] was > 120 µM (not active) throughout.
Consider `N#Cc1ccc(-c2ccc(F)cc2)nc1Oc1ccc(F)cc1`, for which the EC50 was > 120 µM (not active) in assay [1], 22.6 µM (active) in assay [2] and > 120 µM (not active) in assay [3].
On to `CC(=O)c1cccc(NC(=O)CN2C(=O)COc3ccc(S(=O)(=O)N4CCOCC4)cc32)c1`, for which the EC50 in assay [1], in assay [2] and in assay [3] was > 120 µM (not active) throughout.
For the compound `COc1cc(C(=O)CSc2nnc(-c3ccc(O)cc3)n2CC2CCCO2)ccc1NC(C)=O` (stereo unspecified), the EC50 in assay [6] is > 380 µM (inactive). Also, the AC50 in assay [7] is > 380 µM (inactive).
Consider `O=C(NNC(=O)c1ccc([N+](=O)[O-])o1)c1ccccc1`, for which the EC50 in [11] is 0.13 µM (active); in assay [12], > 60 µM (not active); in assay [6], 13.5 µM (active). The AC50 in assay [7] is 23.5 µM (active).
On to `OCc1ccc[n+](/C(C([S-])=Nc2ccc(SC(F)F)cc2)=C(/O)c2ccc(Cl)s2)c1`, for which the EC50 in assay [8] is 18.2 µM (active); in [9], 14.2 µM (inconclusive); in [10] it was 13.4 µM (active).
As for `O=C(O)c1cc(NN=C2CCN(Cc3ccccc3)CC2)ccc1Cl`, the EC50 in assay [8] was 18.7 µM (active); in assay [9], 22.9 µM (active); in [10], > 120 µM (not active).
Turning to `COc1ccc2oc(=O)c(-c3nc4ccccc4o3)cc2c1`, the EC50 was 24.1 µM (active) in assay [8], 17.2 µM (active) in assay [9] and 3.5 µM (active) in assay [10].
Consider `Cn1c(N)c(-c2nc3cccnc3n2C)sc1=S`, for which the values for the EC50 in [8], in assay [9] and in assay [10] were > 120 µM (not active), 9.72 µM (active) and > 120 µM (not active), respectively.
In the case of `COC(=O)COc1ccc(-c2nccc(-c3ccccn3)n2)cc1`, the figures for the EC50 in assay [1], in assay [2] and in assay [3] were 0.159 µM (active), 7.98 µM (active) and < 0.1 µM (active), respectively.
As for `Cc1ccc(-c2ccc(NC(=O)C3C4C=CC(C4)C3C(=O)O)cc2)o1` (stereo unspecified), the results for the EC50 in assay [8], in [9] and in assay [10] were > 120 µM (not active), 33.5 µM (active) and 2.07 µM (active), respectively.
In the case of `COc1ccc(/C=C2/C(=O)N(c3ccccc3)N=C2C)cc1OC`, in assay [6], the EC50 was 1.46 µM (active). The AC50 in [7] was 3.78 µM (active).
With `Cc1nc(S(=O)(=O)N(C)Cc2ccccc2)c(C#N)c(C)c1Cl`, the EC50 was > 120 µM (not active) in assay [8], 60.4 µM (active) in assay [9] and 5.83 µM (active) in assay [10].
As to `O=C(CSCc1cc(O)n[nH]1)Nc1ccc(F)cc1`, in assay [6], the EC50 is 1.74 µM (active). The AC50 in [7] was 4.04 µM (active).
Turning to `Cc1ccc2c(c1)c1c(n2CC(O)CN2CCCCCC2)CCCC1` (stereo unspecified), the EC50 in assay [6] was > 380 µM (inactive). The AC50 in [7] is > 380 µM (inactive).
Regarding `CCOP(=O)(OCC)c1nc(-c2ccc(Cl)cc2Cl)oc1N1CCCCC1`, the EC50 in [1] is 20.3 µM (active); in assay [2], > 120 µM (not active); in [3], > 120 µM (not active).
Turning to `Brc1ccc(C2=NC(Cc3ccccc3)CO2)cc1` (stereo unspecified), the EC50 in assay [8] is 7.48 µM (active); in assay [9], 3.81 µM (active); in [10], 3.58 µM (active).
As for `O=C(C1=C[C@@H](c2csc3ccccc23)C[C@@H](OCc2ccc(CO)cc2)O1)N1CCN(Cc2ccc3c(c2)OCO3)CC1`, the concentration giving a half-maximal response (EC50) in assay [1] is 9.17 µM (active); in assay [2], > 120 µM (not active); in [3], 11.3 µM (active).
`CC(=O)N(CCC(Cc1ccccc1)c1ccc2c(c1)OCO2)Cc1ccccc1F` (stereo unspecified): the half-maximal effective concentration (EC50) in [6] is 5.78 µM (active). Further, the AC50 in assay [7] was 3.39 µM (active).
For `COc1ccccc1-n1c2nc3ccccc3nc2c2c(=O)n(-c3cc(C)cc(C)c3)cnc21`, the 50% effective concentration (EC50) in [1] is > 120 µM (not active); in assay [2], 0.528 µM (active); in assay [3] it was > 120 µM (not active).
`O=C(CN1C(=O)S/C(=C\c2ccc(O)cc2)C1=O)c1ccccc1`: the EC50 in assay [8] was 26 µM (active); in [9] it was 6.77 µM (active); in [10] it was 6.38 µM (active).
Consider `Cc1nn(Cc2ccccc2Cl)c(C)c1NC(=O)CCCn1nc(C)c([N+](=O)[O-])c1C`, for which the EC50 in assay [1] was > 120 µM (not active); in [2], > 120 µM (not active); in assay [3] it was 21 µM (active).
